Laboratory results reported in PMC6597546, “Identification of a potent benzoxaborole drug candidate for treating cryptosporidiosis” (Nature Communications, 2019).
Values joined by “and” are separate entries in the source; they are usually repeats but may differ in a detail not shown here. Equal values may be shown once.

What was measured:
[1] = system: C. parvum (Bunch Grass Farms Iowa isolate); assay: Time-kill curve assay in HCT-8 cells; type: cell-based, Cryptosporidium parvum
Protocol: The invasion assay, DNA replication assay, asexual to sexual stage conversion, and time-kill curve assays were performed using fluorescence microscopy to enumerate parasites and host cell nuclei. Staining protocols are individually described for each assay. Unless noted otherwise, the details of image acquisition were as follows. An inverted Nikon Eclipse Ti2000 microscope with an automated stage and Perfect Focus was used with NIS-Elements Advanced Research software (Nikon, USA, version 4.30.01) to image the wells. The microscope was programmed to focus on the center of each well and then take a 3 × 3 composite image per well using a 20 × (0.45 NA) objective. Images were exported as .tiff files and parasites and host nuclei counted using a custom macro on ImageJ (National Institutes of Health, version 1.52a). Data were analyzed using Microsoft Excel and GraphPad Prism (version 6.01). […] C. parvum Iowa isolate oocysts (Bunch Grass Farms, Deary, ID) were treated to induce excystation and added to >90% confluent HCT-8 cells in 384-well plates. […] The monolayers were then washed, fixed, and stained with Vicia villosa lectin and DAPI at the indicated time points, and imaged as for the C. parvum growth assay. Separate 384-well plates were used for each time point. Parasite numbers were normalized to host cell nucleus numbers and expressed as the percentage of host cells infected. Drug-induced parasite decay was isolated from the reduction in parasites over time that occurs spontaneously in the HCT-8 culture system by expressing the number of parasites as the percentage of the number of parasites present at each time point under control (DMSO-treated) conditions.

[2] = Liver microsome Clint (mouse); type: in vitro ADME; settings: liver microsomes
[3] = Liver microsome Clint (human); type: in vitro ADME; settings: liver microsomes

SMILES: CC1(C)OB(O)c2cc(NC(=O)c3ccc(-n4cccn4)cc3Cl)ccc21 [AN7973]
- concentration giving maximum rate of parasite elimination ([1]; Cryptosporidium parvum, HCT-8, read-out: concentration at which maximum rate of parasite elimination was achieved (∼3 × EC90)): ~630 nM
- time-kill curve result ([1]; compound added ~24 h after infection of HCT-8): appeared to act rapidly and drove progressive elimination of C. parvum
- % Parasite / host nuclei ([1]; compound at 3 x EC90, 0 h exposure): 25.13% and 23.57% and 25.93% and 26.94%
- % Parasite / host nuclei ([1]; compound at 3 x EC90, 6 h exposure): 24.78% and 34.35% and 30.89%
- % Parasite / host nuclei ([1]; compound at 3 x EC90, 24 h exposure): 15.27% and 14.74% and 17.96% and 15.11%
- % Parasite / host nuclei ([1]; compound at 3 x EC90, 48 h exposure): 20.76% and 12.39% and 18.77% and 13.91%
- % Parasite / host nuclei ([1]; compound at 3 x EC90, 72 h exposure): 10.40% and 6.55% and 11.33% and 7.26%
- % Parasite / host nuclei ([1]; compound at 6 x EC90, 0 h exposure): 26.94% and 25.13% and 23.57% and 25.93%
- % Parasite / host nuclei ([1]; compound at 6 x EC90, 6 h exposure): 28.91% and 27.91% and 32.17% and 31.13%
- % Parasite / host nuclei ([1]; compound at 6 x EC90, 24 h exposure): 21.47% and 14.00% and 13.65% and 12.46%
- % Parasite / host nuclei ([1]; compound at 6 x EC90, 48 h exposure): 10.56% and 11.11% and 14.16% and 9.59%
- % Parasite / host nuclei ([1]; compound at 6 x EC90, 72 h exposure): 5.25% and 6.00% and 13.91% and 10.57%
- % Parasite / host nuclei ([1]; compound at 9 x EC90, 0 h exposure): 26.94% and 25.13% and 23.57% and 25.93%
- % Parasite / host nuclei ([1]; compound at 9 x EC90, 24 h exposure): 14.18% and 12.40% and 14.28% and 11.31%
- % Parasite / host nuclei ([1]; compound at 9 x EC90, 48 h exposure): 12.96% and 14.27% and 16.75% and 18.20%
- % Parasite / host nuclei ([1]; compound at 12 x EC90, 0 h exposure): 26.94% and 25.13% and 23.57% and 25.93%
- % Parasite / host nuclei ([1]; compound at 12 x EC90, 24 h exposure): 11.36% and 18.45% and 14.90% and 9.34%
- % Parasite / host nuclei ([1]; compound at 12 x EC90, 48 h exposure): 10.50% and 12.64% and 5.47% and 10.46%
- % Parasite / host nuclei ([1]; compound at 12 x EC90, 72 h exposure): 8.81% and 7.07% and 9.43% and 15.51%
- % Parasite / host nuclei ([1]; compound at EC50, 0 h exposure): 26.94% and 25.13% and 23.57% and 25.93%
- % Parasite / host nuclei ([1]; compound at EC50, 6 h exposure): 20.18%
- % Parasite / host nuclei ([1]; compound at EC50, 24 h exposure): 55.77% and 58.71% and 35.00% and 58.88%
- % Parasite / host nuclei ([1]; compound at EC50, 48 h exposure): 63.82% and 58.60% and 55.54% and 55.88%
- % Parasite / host nuclei ([1]; compound at EC50, 72 h exposure): 29.51% and 58.62% and 41.28% and 34.71%
- % Parasite / host nuclei ([1]; compound at EC90, 0 h exposure): 26.94% and 25.13% and 23.57% and 25.93%
- % Parasite / host nuclei ([1]; compound at EC90, 24 h exposure): 31.22% and 39.05% and 28.47% and 33.72%
- % Parasite / host nuclei ([1]; compound at EC90, 48 h exposure): 43.81% and 37.66% and 41.76% and 32.99%
- % Parasite / host nuclei ([1]; compound at EC90, 72 h exposure): 28.05% and 29.96% and 37.03% and 23.24%
- time required for 99.9% parasite reduction ([1]; in vitro): ~92 h
- in vitro parasite elimination half-life ([1]; one-phase exponential decay, 12 × EC90, referenced to DMSO control): ~9.2 h
- microsomal CLint [2]: < 1 µL/min/mg
- microsomal CLint [3]: < 1 µL/min/mg
